pIC50: −log10 of the molar value.
How the values were obtained:
[1] = tested on: S6 ribosomal protein phosphorylation in MCF7; assay: Inhibition of AKT induced S6 ribosomal protein phosphorylation in MCF7 (immunofluorescence, ArrayScan); assay type: cell-based; details: Homo sapiens, MCF-7 cells, 4 hour treatment at 37°C, anti-phospho-S6 (Ser 235/236), read-out: S6 phosphorylation (Ser235/236) in MCF7-cell IC50
Description: MCF-7 cells (ATCC# HTB-22) were seeded in 96-well poly-lysine coated clear- and flat-bottomed black plates (Matrix Technologies Inc., Hudson, NH, USA), in E-MEM medium (MEM+ Earle's BSS + 2 mM glutamine + 0.1 mM non-essential amino acids) containing 10% of FCS at a density of 7000 cells/well, and incubated overnight at 37°C, 5% CO2, 100% relative humidity. After this incubation, cells were treated with increasing compound doses for 4 hour at 37°C. Afterwards, cells were fixed with PBS/3.7% paraformaldehyde for 15 min at room temperature, wash twice with 200 µl/well D-PBS and permeabilize with a D-PBS solution containing 0.1% Triton X-100 (Sigma-Aldrich, St. Louis, MO, USA) and 0.1 % powder Milk for 15 minutes (staining solution). […] Fluorescence images in the DAPI and Cy5™ channels were automatically acquired, stored and analysed using a Cellomics ArrayScan™ IV instrument (Cellomics, Pittsburgh, USA); the Cellomics Cytotoxicity Algorithm was used to quantify cytoplasmic fluorescence associated with phospho-S6 (Cy5™ signal parameter: "Mean Lyso Mass-pH") for each cell in 10 fields/well, and eventually expressed as a mean population value. […]

AKT1 = AKT1 (Homo sapiens, UniProt P31749); assay: Biochemical assay for inhibitors of AKT1 kinase activity (33P trans-phosphorylation, Dowex resin); parameters: made in house; details: 5 nM enzyme, 132 microM ATP, 30 microM peptide substrate; read-out: AKT1 IC50 (µM) Biochem assay
Description: The N-terminal GST fusion proteins used for the assays were prepared according to the methods described in Kumar, C. C. Biochem. Biophys. ACTA 2001, 1526, 257-268, and in Alessi, D. R.. Biochem. J. 1998 331, 299-308.
The inhibitory activity of putative kinase inhibitors and the potency of selected compounds were determined using a trans-phosphorylation assay.
A specific substrate was incubated with the kinase in appropriate buffer conditions in the presence of ATP traced with ^33P-γ-ATP (gamma phosphate-labeled, Redivue™ Code Number AH9968, 1000-3000Ci/mmole, Amersham Biosciences Piscataway, NJ, USA), optimal cofactors and test compound.
At the end of the phosphorylation reaction, more than 98% cold and radioactive ATP were captured by an excess of Dowex ion exchange resin. The resin was allowed to settle to the bottom of reaction wells by gravity. Supernatant, containing substrate peptide, was subsequently withdrawn and transferred into a counting plate, and radioactivity (corresponding to phosphate incorporated into peptide) was evaluated by β-counting.
Kinase buffer was composed of 50 mM TRIS pH 7.5 containing10 mM MgCl2, 1 mM DTT, 3 microM Na3VO4, and 0.2 mg/mL BSA. 3X KB is buffer of the same composition and pH as KB, but with three times the concentration of each component. iii.Assay conditions (final concentrations) for AKT1.
The kinase assay was run with a final enzyme concentration of 5 nM, in the presence of 132 microM ATP, 0.88 nM ^33P-γ-ATP and 30 microM substrate, a carboxy-terminally biotinylated peptide of the following sequence: ARKRERTYSFGHHA-biotin. The peptide was obtained in batches of >95% peptide purity from PRIMM labs Inc. (Boston MA, USA).
The "test" mixture of 15 microL consisting of: • 1) 5 µl/well of 3x Enzyme mix (done in Kinase Buffer 3X), • 2) 5 µl/well of 3x substrate and ATP mix (done in ddH2O), together with ^33P-γ-ATP, • 3) 5 µl/well of 3x test compounds (diluted into ddH2O - 3% DMSO).
For % inhibition studies, dilution plates at 1 mM, 10 microM and 100 microM were prepared in 100% DMSO, then diluted to 3X final desired concentration (30, 3 and 0.3 microM) in ddH2O, 3% DMSO. A Multimek 96 (Beckman Coulter, Inc. 4300 N. Harbor Boulevard, P.O. Box 3100 Fullerton, CA 92834-3100 USA) was used for compound pipetting into test plates.
For IC50 determination, starting solutions of 30 microM compound in 3% DMSO were derived from 1 mM/100% DMSO stock solutions. These 30 microM starting solutions were used for generation of a further 9 serial 1/3 dilutions in ddH20, 3% DMSO, so as to generate a 10-point dilution curve at 3X the final assay concentration. Serial dilution was conducted in 96-well plates using a Biomek 2000 (Beckman Coulter) system. Dilution curves of 7 compounds/plate were prepared, and each plate also included a 10-point dilution curve of Staurosporine, as well as several negative and positive control wells.
384-well plates, V bottom (test plates) are prepared with 5 µl of the compound dilution (3X) and then placed onto a PlateTrak 12 robotized station (Perkin Elmer; the robot has one 384-tips pipetting head for starting the assay plus one 96-tips head for dispensing the resin) together with one reservoir for the Enzyme mix (3X) and one for the ATP mix (3X).
At the start of the run, the robot aspirates 5 µl of ATP mix, makes an air gap inside the tips (3 µl) and aspirates 5 µl of AKT mix. The following dispensation into the plates allows the kinase reaction to start upon 3 cycles of mixing, done by the robot itself.
The robot incubates the plates for 60 minutes at room temperature, and then stops the reaction by pipetting 70 µl of dowex resin suspension into the reaction mix. Three cycles of mixing are done immediately after the addition of the resin.
Another mixing cycle is performed after all the plates are stopped, this time using normal tips: the plates are then allowed to rest for about one hour in order to maximize ATP capture. […]

Chain of AKT1 (P31749 whole entry, the tested form may be a part): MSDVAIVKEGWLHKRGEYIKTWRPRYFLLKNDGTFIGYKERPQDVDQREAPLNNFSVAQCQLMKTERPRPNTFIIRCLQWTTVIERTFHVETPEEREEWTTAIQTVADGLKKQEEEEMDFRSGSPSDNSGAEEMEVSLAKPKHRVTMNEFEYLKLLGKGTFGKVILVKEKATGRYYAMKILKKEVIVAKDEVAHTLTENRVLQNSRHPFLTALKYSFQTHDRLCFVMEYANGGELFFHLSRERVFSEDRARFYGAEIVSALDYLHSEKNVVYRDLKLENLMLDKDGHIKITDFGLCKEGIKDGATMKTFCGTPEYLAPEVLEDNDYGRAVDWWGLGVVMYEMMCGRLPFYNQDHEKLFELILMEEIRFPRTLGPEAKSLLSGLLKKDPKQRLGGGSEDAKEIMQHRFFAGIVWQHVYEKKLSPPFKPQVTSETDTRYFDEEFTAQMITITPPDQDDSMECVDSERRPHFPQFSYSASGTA

pIC50 [1]	IC50 (AKT1) [µM]	SMILES
4.94	0.121	O=C(N[C@H](CN1CCCC1)c1ccccc1)C1=Cc2c[nH]c3nccc(c23)CC1 [Cpd. 6, N-[(1S)-1-phenyl-2-pyrrolidin-1-ylethyl]-6,7-dihydro-2H-2,3-diazabenzo[cd]azulene-8-carboxamide]
4.87	0.05	NC[C@H](Cc1ccccc1)NC(=O)C1=Cc2c[nH]c3nccc(c23)CC1 [Cpd. 1, N-[(1S)-2-amino-1-benzylethyl]-6,7-dihydro-2H-2,3-diazabenzo[cd]azulene-8-carboxamide]
	0.017	NC[C@H](Cc1ccccc1)NC(=O)C1=Cc2c[nH]c3nccc(c23)NC1 [compound 2, N-[(1S)-2-amino-1-benzylethyl]-6,7-dihydro-2H-2,3,6-triazabenzo[cd]azulene-8-carboxamide]
	0.184	CC(=O)N1CC(C(=O)N[C@H](CN)Cc2ccccc2)=Cc2c[nH]c3nccc1c23 [Cpd. 3, 6-acetyl-N-[(1S)-2-amino-1-benzylethyl]-6,7-dihydro-2H-2,3,6-triazabenzo[cd]azulene-8-carboxamide]
